In patent publication US20240051936A1, “ISOINDOLINONE COMPOUNDS” (Monte Rosa Therapeutics, Inc., priority 2021, published 2024):
Where two headings read alike, the source gives them in different places. Blank lines part the entries; values can stand above or below the molecule they belong to.

Experiments:
GSPT1 = GSPT1 (Homo sapiens (Human), UniProt P15170+Q96SW2); assay: Immunofluorescence assay for GSPT1 degradation in CAL-Si cells; format: cell-based; conditions: CAL-Si cells
Method: The compounds were tested in an immunofluorescence assay for their activity to bind to degrade GSPT1. CAL-Si cells were purchased from DSMZ (cat. Number ACC302), sub-cultured in 90% Dulbecco's MEM (4.5 g/L glucose, Gibco 11965)+10% heat inactivated FBS (BioConcept, 2-01F136I) and incubated at 37° C., 5% CO2. For the assay, imaging microtiterplate Cell Carrier 96 Ultra (Perkin Elmer 6055302) were pre-coated with Fibronectin (Sigma F085, 30 μl at 0.2 μg/ml) in PBS (100 μl, Gibco 14190) for 45 min at room temperature, rinsed with PBS and CAL-Si cells (30K cells/well) were plated and let to adhere overnight. Cells were treated with compounds typically using a serial dilution ranging from 30 μM to 0.1 nM for 6 hours. Compounds were stored at 10 mM DMSO stocks. Vehicle (DMSO), positive (CC-885, 10 μM) and rescue controls (positive control plus 0.2 μM bortezomib) were also included at this stage. Cells were subsequently rinsed with PBS and fixed in 10% Formalin solution (50 μl, Sigma HT5011)) for 20 mins at room temperature. Following three consecutive PBS washes (100 μl), cells were permeabilized in 0.1% Triton X-100 in PBS (Sigma 93443, 50 μl) for 15 mins at room temperature. Following three further PBS washes, 50 μl blocking buffer (1% BSA, Sigma A4503, in PBS) was added for 45 min for signal-to-noise reduction.
Primary antibody (human GSPT1, Sigma HPA052488) was diluted in blocking buffer (dil.1/300, 35 μl/well) and incubated with the cells overnight at 4° C. After three PBS washes, Alexa-fluor 488 coupled secondary antibodies (Invitrogen, A32731, dil.1/1000), Alexa-fluor 647-Phalloïdin (Invitrogen, A22287, dil.1/200) and DAPI (Thermo, #62248, dil.1/1000) were diluted in blocking buffer and incubated with the samples for 2 hours at room temperature. After three final PBS washes, samples were conserved in 100 μl PBS in the dark, until measurement. Image acquisition was performed on the Operetta High-Content Imager (Perkin-Elmer). Fluorescence intensity of Alexa-Fluor 488 (GSPT1), Alexa-Fluor 647 (Actin) and DAPI (Nucleus) were measured. For the determination of GSPT1 DC50 values, a custom algorithm implemented in the PerkinElmer image analysis software Harmony-Acapella® was developed. After user-defined setting of adjustment parameters, the analysis was run identically without human intervention for all image fields. DAPI staining of the nuclei was used to determine the location of cells using standard nuclei detection modules. Segmentation artifacts were removed by threshold-based filters for area, roundness and intensity. The outline of the cells was determined analogously from the sum of the normalized, smoothed DAPI and Actin channel, starting from each nucleus. The Alexa-Fluor 488 (GSPT1) signal intensity in each cell was finally measured, in order to obtain a Mean intensity per cell. GSPT1 degradation (DC50) was calculated after normalization to controls and data import in CDD vault Database, using non-linear regression.

[1] = target: Full length wild-type cereblon CRBN (Homo sapiens (Human), UniProt Q96SW2); assay: Fluorescence polarization (FP) assay, cereblon binding
Method: Compound activity was monitored in a fluorescence polarization (FP) homogeneous assay using 1-[5-({2-[2-(2-{[2-(2,6-dioxopiperidin-3-yl)-1,3-dioxo-2,3-dihydro-1H-isoindol-4-yl]oxy}acetamido)ethoxy]ethyl}carbamoyl)pentyl]-3,3-dimethyl-2-[(1E,3E)-5-[(2E)-1,3,3-trimethyl-5-sulfo-2,3-dihydro-1H-indol-2-ylidene]penta-1,3-dien-1-yl]-3H-indol-1-ium-5-sulfonate as a fluorescent probe. Unless otherwise stated, all reagents were purchased from Sigma Aldrich. Enzymatic reactions were conducted in Perkin-Elmer Black 384 well ProxiPlate Plus (catalogue no. 6008269) in 10 sL total volume. Full length wild-type cereblon CRBN (80.0 nM, 10 sL) was incubated in assay buffer containing 20 mM HEPES (pH 8.0), […], 0.5 mM TCEP and 0.05% Tween 20 in the presence or absence of compound (300 nL). Inhibitors were stored as 10 mM DMSO stocks in an inert environment (low humidity, dark, low oxygen, room temperature) using the Storage Pod System.
Compounds and DMSO were dispensed using the Echo E5XX (Labcyte Inc. USA) to give concentrations from 300 to 0.937 or 3000 to 9.3 nM in a 12 data point curve. […] Following incubation at room temperature for 30 min, the assay was initiated by dispensing the probe to a final concentration of 5 nM (2.5 nL of a 20 μM stock) using the Echo E5XX. FP was measured after a period of 12 hours using a Pherastar plate reader (BMG Labtech, Germany) exciting at 590 nm and measuring the amount of parallel and perpendicular light at 675 nm. The FP signal was subsequently normalized to the no-compound control (i.e., DMSO). Analysis and IC50 values were derived using Dotmatics (Dotmatics UK) software.

[2] = compounds with code A, read-out: DC50 value code
[3] = treated 6 hours, read-out: Code, activity for GSPT1 degradation (DC50)
[4] = wild-type CRBN 80.0 nM, probe 5 nM, FP measured after 12 hours, read-out: rFP IC50
[5] = cereblon binding, bound, read-out: IC50 value

Sequence of GSPT1 (P15170 whole entry): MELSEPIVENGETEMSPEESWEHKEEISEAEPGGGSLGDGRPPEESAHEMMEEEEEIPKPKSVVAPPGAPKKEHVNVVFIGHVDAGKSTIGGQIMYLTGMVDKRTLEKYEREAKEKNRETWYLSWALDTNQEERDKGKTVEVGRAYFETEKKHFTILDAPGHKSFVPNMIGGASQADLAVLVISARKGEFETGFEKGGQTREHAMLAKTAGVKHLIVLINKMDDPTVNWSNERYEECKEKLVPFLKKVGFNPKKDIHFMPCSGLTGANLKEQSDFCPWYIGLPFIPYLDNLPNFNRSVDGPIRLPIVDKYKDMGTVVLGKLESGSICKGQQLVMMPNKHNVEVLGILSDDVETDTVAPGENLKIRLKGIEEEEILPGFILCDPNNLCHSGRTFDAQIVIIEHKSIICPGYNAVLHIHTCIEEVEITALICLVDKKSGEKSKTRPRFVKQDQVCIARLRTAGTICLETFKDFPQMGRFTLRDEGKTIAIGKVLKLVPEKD
Sequence of GSPT1 (Q96SW2 whole entry): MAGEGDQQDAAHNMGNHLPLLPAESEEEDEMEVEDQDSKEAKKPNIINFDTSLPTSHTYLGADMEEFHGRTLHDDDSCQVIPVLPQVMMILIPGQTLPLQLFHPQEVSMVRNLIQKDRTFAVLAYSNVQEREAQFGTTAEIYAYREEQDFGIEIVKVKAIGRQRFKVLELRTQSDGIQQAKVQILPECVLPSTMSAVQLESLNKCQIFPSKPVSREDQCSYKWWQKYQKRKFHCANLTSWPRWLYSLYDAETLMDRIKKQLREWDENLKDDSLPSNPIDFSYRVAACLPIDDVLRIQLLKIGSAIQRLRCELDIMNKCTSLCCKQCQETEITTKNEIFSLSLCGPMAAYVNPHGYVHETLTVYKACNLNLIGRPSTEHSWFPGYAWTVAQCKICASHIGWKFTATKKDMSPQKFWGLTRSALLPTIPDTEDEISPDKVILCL
Sequence of GSPT1 (Q16531 whole entry partner): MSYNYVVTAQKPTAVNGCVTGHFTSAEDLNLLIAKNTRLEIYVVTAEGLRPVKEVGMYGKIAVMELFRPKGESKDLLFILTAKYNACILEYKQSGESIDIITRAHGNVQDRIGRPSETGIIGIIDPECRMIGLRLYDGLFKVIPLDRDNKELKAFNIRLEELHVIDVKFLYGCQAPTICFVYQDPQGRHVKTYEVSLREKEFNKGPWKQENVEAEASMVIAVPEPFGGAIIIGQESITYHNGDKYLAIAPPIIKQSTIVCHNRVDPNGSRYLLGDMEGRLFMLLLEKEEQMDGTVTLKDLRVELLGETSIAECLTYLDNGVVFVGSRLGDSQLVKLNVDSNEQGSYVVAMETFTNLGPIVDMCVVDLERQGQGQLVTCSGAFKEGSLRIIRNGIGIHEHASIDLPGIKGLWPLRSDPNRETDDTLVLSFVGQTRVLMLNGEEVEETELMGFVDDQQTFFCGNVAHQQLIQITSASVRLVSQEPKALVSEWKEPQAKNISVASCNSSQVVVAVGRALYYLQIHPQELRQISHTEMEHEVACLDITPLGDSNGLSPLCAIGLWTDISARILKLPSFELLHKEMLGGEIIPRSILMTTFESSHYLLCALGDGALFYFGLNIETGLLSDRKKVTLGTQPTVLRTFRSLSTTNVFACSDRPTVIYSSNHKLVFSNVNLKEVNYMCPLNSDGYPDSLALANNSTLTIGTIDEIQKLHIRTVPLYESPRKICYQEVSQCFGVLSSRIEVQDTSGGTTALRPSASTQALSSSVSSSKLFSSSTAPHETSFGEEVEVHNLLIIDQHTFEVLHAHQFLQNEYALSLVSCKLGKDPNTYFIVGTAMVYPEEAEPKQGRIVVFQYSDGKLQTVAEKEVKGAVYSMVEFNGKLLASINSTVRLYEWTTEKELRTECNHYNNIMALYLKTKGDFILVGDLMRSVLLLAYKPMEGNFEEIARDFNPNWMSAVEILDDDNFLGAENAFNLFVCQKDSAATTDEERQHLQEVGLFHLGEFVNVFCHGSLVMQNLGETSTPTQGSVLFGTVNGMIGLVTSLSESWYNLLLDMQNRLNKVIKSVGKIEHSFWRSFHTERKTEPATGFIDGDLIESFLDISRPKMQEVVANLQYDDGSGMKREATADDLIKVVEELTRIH
Sequence of Full length wild-type cereblon CRBN (Q96SW2 whole entry): as the sequence (Q96SW2 whole entry) above

Structure (SMILES): O=C1CCC(N2Cc3c(F)cc(COC(=O)Nc4ccc(-c5ccccc5)nc4)cc3C2=O)C(=O)N1 (stereo not drawn) [Compound 8, (2-(2,6-dioxopiperidin-3-yl)-7-fluoro-3-oxoisoindolin-5-yl)methyl(6-phenylpyridin-3-yl)carbamate]
DC50 (GSPT1; [2]): < 30 nM | DC50 (GSPT1; [3]): < 30 nM | IC50 [1, 4]: > 1900 nM

Structure (SMILES): O=C1CCC(N2Cc3c(F)cc(COC(=O)Nc4cc(F)cc(OC(F)(F)F)c4)cc3C2=O)C(=O)N1 (stereo not drawn) [Compound 12, (2-(2,6-dioxopiperidin-3-yl)-7-fluoro-3-oxoisoindolin-5-yl)methyl(3-fluoro-5-(trifluoromethoxy)phenyl)carbamate]
DC50 (GSPT1; [3]): 30 to 300 nM | IC50 [1, 4]: > 1900 nM

Structure (SMILES): O=C1CCC(N2Cc3c(F)cc(COC(=O)Nc4cccc(OC(F)(F)F)c4)cc3C2=O)C(=O)N1 (stereo not drawn) [Compound 15, (2-(2,6-dioxopiperidin-3-yl)-7-fluoro-3-oxoisoindolin-5-yl)methyl (3-(trifluoromethoxy)phenyl)carbamate]
DC50 (GSPT1; [3]): 30 to 300 nM | IC50 [1, 4]: > 1900 nM

Structure (SMILES): CC1CCCCN1c1ccc(NC(=O)OCc2cc(F)c3c(c2)C(=O)N(C2CCC(=O)NC2=O)C3)cn1 (stereo not drawn) [Compound 16, (2-(2,6-dioxopiperidin-3-yl)-7-fluoro-3-oxoisoindolin-5-yl)methyl (6-(2-methylpiperidin-1-yl)pyridin-3-yl)carbamate]
DC50 (GSPT1; [2]): < 30 nM | DC50 (GSPT1; [3]): < 30 nM | IC50 [1, 5]: < 600 nM | IC50 [1, 4]: 600 to 1200 nM

Structure (SMILES): O=C1CCC(N2Cc3c(F)cc(COC(=O)Nc4cccc(OC5CC5)c4)cc3C2=O)C(=O)N1 (stereo not drawn) [Compound 21, (2-(2,6-dioxopiperidin-3-yl)-7-fluoro-3-oxoisoindolin-5-yl)methyl (3-cyclopropoxyphenyl)carbamate]
DC50 (GSPT1; [2]): < 30 nM | DC50 (GSPT1; [3]): < 30 nM | IC50 [1, 5]: < 600 nM | IC50 [1, 4]: 1200 to 1900 nM

Structure (SMILES): O=C1CCC(N2Cc3c(F)cc(COC(=O)Nc4cc(-c5ccccc5)ccn4)cc3C2=O)C(=O)N1 (stereo not drawn) [Compound 24, (2-(2,6-dioxopiperidin-3-yl)-7-fluoro-3-oxoisoindolin-5-yl)methyl(4-phenylpyridin-2-yl)carbamate]
DC50 (GSPT1; [3]): 30 to 300 nM | IC50 [1, 4]: > 1900 nM

Structure (SMILES): CC(C)(C)c1cccc(NC(=O)OCc2cc(F)c3c(c2)C(=O)N(C2CCC(=O)NC2=O)C3)c1 (stereo not drawn) [Compound 25, (2-(2,6-dioxopiperidin-3-yl)-7-fluoro-3-oxoisoindolin-5-yl)methyl (3-(tert-butyl)phenyl)carbamate]
DC50 (GSPT1; [2]): < 30 nM | DC50 (GSPT1; [3]): < 30 nM | IC50 [1, 4]: > 1900 nM

Structure (SMILES): O=C1CCC(N2Cc3c(F)cc(COC(=O)Nc4cc(Cl)cc(Cl)c4)cc3C2=O)C(=O)N1 (stereo not drawn) [Compound 28, (2-(2,6-dioxopiperidin-3-yl)-7-fluoro-3-oxoisoindolin-5-yl)methyl(3,5-dichlorophenyl)carbamate]
DC50 (GSPT1; [3]): 30 to 300 nM | IC50 [1, 4]: > 1900 nM

Structure (SMILES): Cc1cc(C)cc(NC(=O)OCc2cc(F)c3c(c2)C(=O)N(C2CCC(=O)NC2=O)C3)c1 (stereo not drawn) [Compound 31, (2-(2,6-dioxopiperidin-3-yl)-7-fluoro-3-oxoisoindolin-5-yl)methyl (3,5-dimethylphenyl)carbamate]
DC50 (GSPT1; [3]): 30 to 300 nM | IC50 [1, 4]: > 1900 nM

Structure (SMILES): O=C1CCC(N2Cc3c(F)cc(COC(=O)Nc4cc(Cl)cc(OC(F)F)c4)cc3C2=O)C(=O)N1 (stereo not drawn) [Compound 34, (2-(2,6-dioxopiperidin-3-yl)-7-fluoro-3-oxoisoindolin-5-yl)methyl(3-chloro-5-(difluoromethoxy)phenyl)carbamate]
DC50 (GSPT1; [3]): 30 to 300 nM | IC50 [1, 4]: > 1900 nM

Structure (SMILES): COc1cc(COC(=O)Nc2ccc3c(c2)OCC3(C)C)cc2c1CN(C1CCC(=O)NC1=O)C2=O (stereo not drawn) [Compound 37, (2-(2,6-dioxopiperidin-3-yl)-7-methoxy-3-oxoisoindolin-5-yl) methyl(3,3-dimethyl-2,3-dihydrobenzofuran-6-yl)carbamate]
DC50 (GSPT1; [2]): < 30 nM | DC50 (GSPT1; [3]): < 30 nM | IC50 [1, 5]: < 1200 nM

Structure (SMILES): COc1cc(COC(=O)Nc2ccc(N3CCCCC3C)nc2)cc2c1CN(C1CCC(=O)NC1=O)C2=O (stereo not drawn) [Compound 38, (2-(2,6-dioxopiperidin-3-yl)-7-methoxy-3-oxoisoindolin-5-yl)methyl(6-(2-methylpiperidin-1-yl)pyridin-3-yl)carbamate]
DC50 (GSPT1; [2]): < 30 nM | DC50 (GSPT1; [3]): < 30 nM | IC50 [1, 5]: < 600 nM | IC50 [1, 4]: ≤ 600 nM

Continued, values first:

DC50 (GSPT1; [2]): < 30 nM | DC50 (GSPT1; [3]): < 30 nM | IC50 [1, 5]: < 600 nM | IC50 [1, 4]: ≤ 600 nM
Structure (SMILES): O=C1CCC(N2Cc3c(F)cc(COC(=O)Nc4ccc(-c5ccccn5)cc4)cc3C2=O)C(=O)N1 (stereo not drawn) [Compound 11, (2-(2,6-dioxopiperidin-3-yl)-7-fluoro-3-oxoisoindolin-5-yl)methyl (4-(pyridin-2-yl)phenyl)carbamate]

DC50 (GSPT1; [3]): 30 to 300 nM | IC50 [1, 4]: > 1900 nM
Structure (SMILES): CC1(c2ccc(NC(=O)OCc3cc(F)c4c(c3)C(=O)N(C3CCC(=O)NC3=O)C4)cc2)CC1 (stereo not drawn) [Compound 13, (2-(2,6-dioxopiperidin-3-yl)-7-fluoro-3-oxoisoindolin-5-yl)methyl (4-(1-methylcyclopropyl)phenyl)carbamate]

DC50 (GSPT1; [2]): < 30 nM | DC50 (GSPT1; [3]): < 30 nM | IC50 [1, 5]: < 600 nM | IC50 [1, 4]: 1200 to 1900 nM
Structure (SMILES): O=C1CCC(N2Cc3c(F)cc(COC(=O)Nc4ccc(-c5ccccc5F)nc4)cc3C2=O)C(=O)N1 (stereo not drawn) [Compound 18, (2-(2,6-dioxopiperidin-3-yl)-7-fluoro-3-oxoisoindolin-5-yl)methyl(6-(2-fluorophenyl)pyridin-3-yl)carbamate]

DC50 (GSPT1; [2]): < 30 nM | DC50 (GSPT1; [3]): < 30 nM | IC50 [1, 5]: < 600 nM | IC50 [1, 4]: ≤ 600 nM
Structure (SMILES): Cc1ccccc1-c1ccc(NC(=O)OCc2cc(F)c3c(c2)C(=O)N(C2CCC(=O)NC2=O)C3)cn1 (stereo not drawn) [Compound 19, (2-(2,6-dioxopiperidin-3-yl)-7-fluoro-3-oxoisoindolin-5-yl)methyl (6-(o-tolyl)pyridin-3-yl)carbamate]

DC50 (GSPT1; [3]): 30 to 300 nM | IC50 [1, 5]: < 600 nM | IC50 [1, 4]: 1200 to 1900 nM
Structure (SMILES): O=C1CCC(N2Cc3c(F)cc(COC(=O)Nc4cccc(OC(F)F)c4)cc3C2=O)C(=O)N1 (stereo not drawn) [Compound 26, (2-(2,6-dioxopiperidin-3-yl)-7-fluoro-3-oxoisoindolin-5-yl)methyl(3-(difluoromethoxy)phenyl)carbamate]

DC50 (GSPT1; [2]): < 30 nM | DC50 (GSPT1; [3]): < 30 nM | IC50 [1, 4]: > 1900 nM
Structure (SMILES): Cc1ccc(NC(=O)OCc2cc(F)c3c(c2)C(=O)N(C2CCC(=O)NC2=O)C3)cc1OC(F)F (stereo not drawn) [Compound 35, (2-(2,6-dioxopiperidin-3-yl)-7-fluoro-3-oxoisoindolin-5-yl) methyl (3-(difluoromethoxy)-4-methylphenyl)carbamate]

DC50 (GSPT1; [2]): < 30 nM | DC50 (GSPT1; [3]): < 30 nM | IC50 [1, 5]: < 600 nM | IC50 [1, 4]: 1200 to 1900 nM
Structure (SMILES): COc1cc(COC(=O)Nc2ccc(-c3ccccc3F)nc2)cc2c1CN(C1CCC(=O)NC1=O)C2=O (stereo not drawn) [Compound 36, (2-(2,6-dioxopiperidin-3-yl)-7-methoxy-3-oxoisoindolin-5-yl)methyl (6-(2-fluorophenyl)pyridin-3-yl)carbamate]
